Results from article PMC4834639, “Steroid binding to Autotaxin links bile salts and lysophosphatidic acid signalling” (Nature Communications, 2016).
“Also recorded” adds a separate entry of the source. Like-named read-outs stand apart in the source and are kept apart here.

Experiments:
hATX [1] = biological target: T1, hATX (Homo sapiens, UniProt Q13822)
Method: (§1) All biochemical studies were performed with hATX. ATX lysoPLD activity was measured by choline release from LPC[47]. […] The relative amount of released choline was measured by HVA fluorescence in a 96-well plate (Corning). Fluorescent intensity was determined at λex/λem=320/450 nm every 30 s for 90 min with a Fluorostar plate reader (BMG Labtech). Data analysis was performed using GraphPad Prism.
(§2) The experiments for determining IC50 for different bile salt inhibitors were performed by adding the named bile salt and performing serial threefold dilutions; for each bile salt concentration, the velocity of the reaction was monitored as a function of time in the lysoPLD assay as described above.
(§3) For initial comparison between competitive, uncompetitive and non-competitive inhibition by TUDCA, using the LPC and the FS3 assays, we measured the relative velocity for increasing LPC or FS3 substrate concentrations, for no-inhibitor and for three different inhibitor concentrations. The relative velocity for each data point was measured by linear regression as described above, and a Michaelis–Menten curve was created for each inhibitor concentration. We then used the following equations to describe each mode of inhibition:
(§4) where in addition to previous definitions that can be derived from equations (4–6), we define Part as the partiality of the inhibition and α as an estimated constant that determines mechanism: if α=1, the formula becomes identical to equation (4) and the inhibition mode is noncompetitive; if a is very large, then the model approaches a competitive model equation (3); if a is very small but greater than zero, the model approaches an uncompetitive model.
(§5) This procedure allowed a more robust fit to determine all parameters from all available experiments.
(§6) All modelling was performed using the regression analysis tools within the Graphpad/Prism software. The values of all derived parameters indicate mean values as obtained by nonlinear regression analysis using the formulas listed above; triplicate data were used as separate observations during the fit; ±values indicate the standard error of the mean.

hATX [2] = biological target: T1, hATX; assay: biochemical
Method: as §1, §2, §3, §4, §5, §6

hATX [3] = biological target: T1, hATX; assay: Mass spectrometry analysis of sterols associated with recombinant ATX preparation; design: made in house; host or cells: HEK 293 Flp-In cells; details: for amount found in ATX preparation: representative ATX preparation containing 2.4 pmol ATX; for Ratio to ATX: representative ATX preparation, ATX = 1.0
Method: Recombinant hATX preparations or buffer controls were extracted using acidified organic solvents as reported previously for lipid extractions from cells and tissues[45] with inclusion of deuterium-labelled cholesterol of oxysterol internal standards as detailed below. Samples were evaporated to dryness and reconstituted in methanol for mass spectrometry analysis.
Cholesterol and hydroxysterols were analysed using an AB Sciex 4000-Qtrap hybrid linear ion trap triple quadrupole mass spectrometer in multiple reaction monitoring mode connected to a Shimadzu HPLC. Cholesterol was analysed in positive multiple reaction monitoring mode using a Machery Nagel Nucleodur C8 gravity column, 5 μm, 125 × 2 mm^2 with a flow rate of 0.5 ml min^−1. Solvent A consists of 75/25 of methanol/water with 0.5% formic acid and 0.1% 5 mM ammonium formate and solvent B consists of 99/1 of methanol/water with 0.5% formic acid and 0.1% 5 mM ammonium formate. The cholesterol measurements were conducted exactly as reported previously with quantification accomplished by reference to a deuterated internal standard. Oxysterols were measured after dimethylglycine (DMG) derivatization using an Agilent Zorbax Eclipse XDB-C18 column, 5 μm, 4.6 × 150 mm^2 with a flow rate of 0.5 ml min^−1. Solvent A was 85% methanol with 5 mM ammonium acetate and solvent B consisted of 80:20:2 of chloroform/water/50 mM ammonium acetate. In brief, we obtained authentic standards for 25-, 24-, 27, 7-α and 4-β OH cholesterol and deuterated 25-OH cholesterol and prepared DMG derivatives exactly as previously described. We obtained product ion spectra from the doubly and singly charged DMG derivatives of these compounds that were essentially identical to those reported previously with some differences in product ion abundances that are likely attributable to differences between our mass spectrometer system and that used by Jiang et al.[46]. […] Quantification of oxysterols was accomplished by reference to the deuterated 25-OH cholesterol internal standard as explained below.
Cholesterol was detected in all ATX preparations analysed.
As reported by Jiang et al.[46], bis-DMG derivatives of hydroxylated cholesterol generate doubly charged molecular ions (m/z=287.3), which fragment to produce protonated DMG (m/z=104.1) and production of singly charged mono-DMG derivative ions (m/z=367.2). […] Accordingly, we established a selected ion-monitoring mode HPLC LC MS/MS assay that monitored these ion pairs. […] Quantification was accomplished by comparing the integrated peak area for the […]/104.1 ion pair to that of the corresponding ion pair from the deuterated 25-OH cholesterol internal standard. That ATX preparation analysed contained 1.48 pmol of 7-OH cholesterol.

[4] = system: ATX-mediated LPAR1 endocytosis in HeLa cells; assay: LPA1 receptor internalization assay in GFP-LPA1-transfected HeLa cells; details: 0.1 μM LPC, 5 nM ATX, 500 μM TUDCA, 15 min, P<0.001
Method: HeLa cells (obtained from American Type Culture Collection) were grown in DMEM supplemented with 10% fetal bovine serum at 37 °C under 5% CO2. For LPA1 internalization studies, HeLa cells were transient transfected with GFP-LPA1 plasmid using X-tremeGene 9 (Roche) reagent according to the manufacturer's instructions. At 10 h after transfection, the cells were rinsed with SF-DMEM and incubated in the same medium for 16–24 h before further treatments. […] Slides were examined on a Leica TCS-SP5 confocal microscope (× 62 objective) and analysed using ImageJ software.

[5] = LPC(18:1) substrate, result in words

Structure (SMILES)	effect on ATX-mediated LPC hydrolysis (hATX [1]; [5])	IC50 (hATX [2])	other results
C[C@]12CC[C@H]3[C@@H](CCC4=CC(=O)CC[C@@]43C)[C@@H]1CC[C@@H]2O [testosterone]	no effect		
C[C@]12C=CC(=O)C=C1CC[C@@H]1[C@@H]2[C@@H](O)C[C@@]2(C)[C@H]1CC[C@]2(O)C(=O)CO [prednisolone]	no effect		
C[C@H](CCC(=O)O)[C@H]1CC[C@H]2[C@@H]3[C@@H](O)C[C@@H]4C[C@H](O)CC[C@]4(C)[C@H]3CC[C@]12C [UDCA, Ursodeoxycholic acid]		8.8 ± 0.5 µM	
C[C@H](CCC(=O)NCCS(=O)(=O)O)[C@H]1CC[C@H]2[C@@H]3CC[C@@H]4C[C@H](O)CC[C@]4(C)[C@H]3C[C@H](O)[C@]12C [TDCA, Taurodeoxycholic acid]	abrogate the inhibitory activity	> 1000 µM	
C[C@H](CCC(=O)NCCS(=O)(=O)O)[C@H]1CC[C@H]2[C@@H]3[C@H](O)C[C@@H]4C[C@H](O)CC[C@]4(C)[C@H]3C[C@H](O)[C@]12C [TCA, Taurocholic acid]		> 1000 µM	effect on ATX-mediated LPC hydrolysis (hATX [1]): abrogate the inhibitory activity
C[C@@H]1C[C@H]2[C@@H]3CCC4=CC(=O)C=C[C@]4(C)[C@@]3(F)[C@@H](O)C[C@]2(C)[C@@]1(O)C(=O)CO [dexamethasone]	no effect		
CC(C)CCC[C@@H](C)[C@H]1CC[C@H]2[C@@H]3[C@H](O)C=C4C[C@@H](O)CC[C@]4(C)[C@H]3CC[C@]12C [7HCS, 7α-hydroxycholesterol]	no effect		amount found in ATX preparation (hATX [3]): 1.48 pmol; Ratio to ATX (hATX [3]): 0.62
C[C@H](CCC(=O)NCCS(=O)(=O)O)[C@H]1CC[C@H]2[C@@H]3[C@@H](O)C[C@@H]4C[C@H](O)CC[C@]4(C)[C@H]3CC[C@]12C [TUDCA, Tauroursodeoxycholic acid]			ATX-mediated LPAR1 endocytosis (number of GFP-LPA1 endosomes) [4]: reduces ATX-mediated LPAR1 endocytosis; also recorded: reduces the number of endosomes
C[C@H](CCC(=O)NCC(=O)O)[C@H]1CC[C@H]2[C@@H]3[C@H](O)C[C@@H]4C[C@H](O)CC[C@]4(C)[C@H]3CC[C@]12C [GCDCA, Glycochenodeoxycholic acid]	did not significantly change potency	8.1 ± 0.7 µM	
C[C@H](CCCC(C)(C)O)[C@H]1CC[C@H]2[C@@H]3[C@H](O)C=C4C[C@@H](O)CC[C@]4(C)[C@H]3CC[C@]12C [DHCS, 7α,25-Dihydroxycholesterol]	no effect	> 1000 µM	
CC(C)CCC[C@@H](C)[C@H]1CC[C@H]2[C@@H]3CC=C4C[C@@H](O)CC[C@]4(C)[C@H]3CC[C@]12C [Cholesterol]			amount found in ATX preparation (hATX [3]): 0.35 pmol; Ratio to ATX (hATX [3]): 0.15
